Legend:
[1] = test system: statin-induced glucose intolerance; experiment: Treatment of statin-induced glucose intolerance using HMB; assay type: in vivo, human
Description: Glucose intolerance with hyperglycemia/increased risk for diabetes, probably related to insulin resistance, has been reported in statin users, especially lipophilic statins such as […], less so in hydrophilic statins such as pravastatin. Here, HMB administration is used to treat statin-related glucose intolerance. Protocol: type 1, 1.5, and 2 diabetics with hemoglobin A1C at or exceeding 6.5% are eligible; also eligible are hyperglycemic/increased risk for diabetes patients not on diabetic treatment but with a hemoglobin A1C at or exceeding 5.7%; patients with critical value fasting blood glucose and hemoglobin A1C levels are excluded. Once enrolled, the following steps are initiated: • 1. Continue statin and diabetic medications with dosages unchanged; • 2. Initiate calcium HMB monohydrate, 2 g twice daily, or HMB free acid (gel form), 1 g three times daily; • 3. Repeat fasting blood glucose and hemoglobin A1C in 3 weeks and 6 weeks;

[2] = cited from earlier work
[3] = No Observed Adverse Effect Level (NOAEL) for HMB oral ingestion in rats; assay type: in vivo
Protocol: This is an estimated human equivalent of 558 mg/kg and 665 mg/kg for men and women, respectively; assuming a body weight of 150 lbs equates to 38 g (males) and 45 g (females). […] Overall, standard doses of HMB appear to be well-tolerated over long periods of time.

[4] = test system: patients with statin-induced myopathy (SIM); assay type: in vivo, human
Protocol: A clinical study was conducted to evaluate the effects of HMB on patients with statin-induced myopathy (SIM). A total of eighteen patients were evaluated for the study with informed written consent obtained. Of the eighteen patients, fourteen (14) ultimately qualified as having true statin myalgia and were enrolled in the study. All patients enrolled were under the care of a board certified cardiologist.
A summary of the enrolled patients and their outcomes is as follows: • 1. All 14 had type 2a or mixed hyperlipidemia. • 2. All 14 had been treated with multiple statin agents, in each case withdrawing from the statin agent due to myalgia/myopathy. • 3. Of the 14 patients enrolled, 4 had elevated CPKs (creatine phosphokinase, a biomarker for myositis/rhabdomyolysis) secondary to SIM. • 4. Five of the 14 patients had undergone prior percutaneous coronary intervention with stents. • 5. One of the 14 patients had undergone prior coronary bypass surgery. • 6. Four of the 14 patients had angiographically documented moderate coronary artery disease not requiring percutaneous coronary intervention (PCI)/coronary bypass. • 7. Four of the 18 patients were disqualified due to the following: • Patient's leg myalgia was secondary to angiographically proven peripheral vascular disease, not SIM and symptoms were consistent with this diagnosis. • Patient's unilateral leg pain was secondary to neuropathy, not SIM. • Patient complained of GI upset on combined statin+3-hydroxy 3-methybutyrate and medication was discontinued. […] All 14 qualified patients remained on combination statin (in some cases with Zetia to achieve target) plus HMB therapy after the initial duration of the study. As noted, of those who had previously discontinued statin therapy, all had been tried on multiple statin agents without success. • 9. Follow up was conducted with all patients including out-patient visits and phone conversation. • 10.
The free acid form was used in one patient who experienced major CPK elevations (900-1000 IU/L range) and disabling myalgia on statins.
For this study, patients were evaluated using multiple laboratories with variable lab normal ranges, which are included. In the patient population as a whole, the full spectrum of SIM is presented, including statin myalgia […] CPK elevation (myositis or rhabdomyolysis depending on severity), elevation of CPK without myalgia, post-statin elevation of CPK with and without pain, post-statin myalgia without CPK elevation, and, finally, statin-induced muscle weakness without myalgia. Also represented were other statin-induced side effects such as short-term memory loss and glucose intolerance.

[5] = test system: statin-induced short-term memory loss; experiment: Treatment of statin-induced short-term memory loss with HMB; assay type: in vivo, human; conditions: within two months of HMB treatment, statin continued
Description: HMB administration is used to treat short-term memory loss, an unusual side effect resulting from statin administration. […] Protocol: Patient describes short term memory loss after starting statin. Initiate the following steps: • 1. Assess memory loss with standardized neuro-psychometric testing as baseline status; • 2. Initiate calcium HMB monohydrate, 2 g twice daily; or calcium free acid gel, 1 g three times daily; • 3. Continue statin therapy with no dose change; • 4. Obtain baseline lab (lipid panel, CPK, liver function/metabolic profile) and repeat in 12 weeks; • 5. Reassess memory status in 12 weeks repeating psycho-metric testing and comparing to baseline study.

[6] = test system: statin-induced abnormal liver function; experiment: Treatment of statin-induced abnormal liver function using HMB; assay type: in vivo, human; conditions: within 3 months of beginning HMB treatment
Protocol: Elevated liver function tests (LFTs) are common in statin users. The presence of elevated transaminases, commonly the transaminases alanine transaminase (ALT or SGPT) and aspartate transaminase (AST or SGOT), are indicators of liver damage. Terms for this condition include transaminasemia and transaminitis, Normal ranges for both ALT and AST are 8-40 U/L with mild transaminesemia noted to the upward numerical limit of 250 U/L. Here, HMB is administered to normalize abnormal liver function tests and reverse transaminitis. […] Once enrolled, initiate the following steps: • 1. Initiate calcium HMB monohydrate, 2 g twice daily or HMB free acid (gel form), 1 g three times daily; • 2. Continue statin agent with no dose change; • 3. Repeat liver panel in 3 months and compare to baseline.

[7] = test system: statin-related cumulative trauma disorder; experiment: Treatment of statin-related cumulative trauma disorder using HMB; assay type: in vivo, human; conditions: within 6 weeks of beginning HMB treatment
Description: Cumulative trauma disorder, also known as chronic overuse syndrome, is characterized by muscle damage due to performing repetitive activities over time. Statin users are particularly vulnerable to cumulative trauma disorder due to impaired ability to heal chronically micro-traumatized muscle. Here, HMB is used to treat cumulative trauma disorder. Protocol: Patients are enrolled if they qualify with symptoms that include chronic muscle weakness and pain complemented by an occupation or lifestyle lending itself to chronic overuse syndrome (e.g., construction workers, etc.). All patients are currently on statins. Initial documentation of strength levels and pain severity are required. Pain is evaluated using the Verbal Numerical Rating Scale (VNRS). Strength is measured using the Manual Muscle Testing/5-point scale. Additionally, grip strength is measured using a dynamometer. Once enrolled, the following steps are initiated: • 1. Obtain baseline lab including lipid panel and CPK-MM levels; • 2. Continue statin with dose unchanged; • 3. Continue repetitive activity in question at the same level of intensity; • 4. […]

[8] = test system: rosuvastatin-induced myalgia and myopathy; experiment: Initial assessment of HMB reversal of statin myalgia (single volunteer); assay type: in vivo, human
Protocol: A healthy, fully informed and consenting adult volunteer with severe rosuvastatin-induced myalgia and myopathy and pre-statin LDL of 260 was administered 1 gram HMB three times a day (3 grams/day total) while rosuvastatin therapy was continued. Within 72 hours of the initial HMB administration, statin myalgia/myopathy fully subsided. During brief intervals where HMB treatment was discontinued (i.e., unintentionally skipped doses), the subject reported a return of myalgia, which again subsided upon reinstatement of HMB treatment.

[9] = cited from earlier work; remark: listed apart in the source

## CC(C)(O)CC(=O)O [HMB, β-hydroxy β-methylbutyrate]
[1]; diabetic patients, within 6 weeks
  fasting blood glucose: less than 130 mg %
[1]; diabetics, within 6 weeks of beginning HMB treatment
  hemoglobin A1C: below 6.5%
[1]; hyperglycemic/non-diabetic management patients, within 6 weeks
  fasting blood glucose: less than 100 mg %
[1]; hyperglycemics on dietary management, within 6 weeks
  hemoglobin A1C: < 5.7%
[2]; in vivo
  half-life: relatively short
  time to peak levels: quickly
[2]; when ingested with glucose
  area under blood level curve: reduced
[3]; females
  human equivalent of NOAEL assuming a body weight of 150 lbs: 45 g
[3]; males
  human equivalent of NOAEL assuming a body weight of 150 lbs: 38 g
[4]; Patient F-6, atorvastatin 40 mg + Zetia 10 mg + 2 g BID, 2-month follow-up
  short term memory loss: mostly resolved
[4]; all 14 qualifying patients, combination statin plus HMB
  response of SIM symptoms: complete resolution of SIM symptoms
[4]; the disqualified patient with GI upset, after HMB treatment
  SIM-related myalgia: resolved completely
[5]
  short-term memory loss: reversal of some or all short-term memory loss
[6]
  ALT/SGPT: less than 40 U/L
  AST/SGOT: less than 40 U/L
[7]
  pain severity: reduced pain severity
  strength levels: increased strength levels
[8]; 1 gram HMB three times a day, rosuvastatin continued, one volunteer
  time until statin myalgia/myopathy fully subsided: ≤ 72 h
[8]; increase to 6 grams/day
  benefit of increased HMB dosage: no additional benefit
[9]; 3 g HMB daily for up to 8 weeks, youth and older persons
  toxicological parameters in serum: failed to alter toxicological parameters in serum
[9]; 3 g daily, one year of administration
  safety on long administration: safe
[9]; approximately 6 g HMB daily (78 mg/kg) for one month, untrained young males subject to exercise
  toxic effects on serum parameters: did not show any toxic effects
[9]; standard doses, long periods of time
  tolerability: well-tolerated
